Data reported in article PMC9975351 (Frontiers in Pharmacology, 2023).

Legend:
[1] = Metabolic stability and metabolite formation in pooled human liver microsomes with NADPH and/or UDPGA; assay type: in vitro ADME; details: human, microsomes, pH 7.4, Half-life
Method: Microsomal incubation was conducted in triplicate using 0.1 M potassium phosphate buffer (PPB, pH 7.4) in eight-well tube strips in an 8 × 12 rack (1.2 mL; VWR, Emeryville, CA, United States). […] The mixture was pre-incubated at 37°C with shaking at approximately 100 rpm for 5 min. UGT glucuronidation was performed with HLMs (1 mg/mL) and alamethicin (25 μg/mg microsomal protein) in a 100-mM PPB (pH 7.4) solution on ice for 15 min. […] CYP, UGT, and combined reactions were initiated by addition of the NADPH regenerating system, UDPGA (1 mM), and both, respectively. […] The incubation mixtures were then centrifuged at 2,000 × g and 4°C for 20 min, and the supernatants were analyzed by LC-QTOF HRMS.
The incubation mixtures were pre-incubated at 37°C in a shaking water bath at approximately 100 rpm for 5 min. Reactions were initiated by the addition of an NADPH-regenerating system. The reaction was terminated, centrifuged then analyzed using the same method described above.
(§1) In the microsomal stability analysis, degradation half-life (t½) values were calculated using the following equation: t½=0.693/k where k is the first-order degradation rate constant, estimated by one-phase exponential-decay non-linear regression of the degradation time-course data using Graph Pad Prism 8.0 (Graph Pad Software Inc., San Diego, CA, United States). In vitro metabolic stability parameters, microsomal intrinsic clearance (CLint,mic), apparent intrinsic clearance (CL′int), and hepatic clearance (CLh), were calculated according to the well-stirred model approach ([Pang and Rowland, 1977]; [Baranczewski et al., 2006]). The apparent kinetic parameters of GRL0617 metabolism were determined by fitting a one-enzyme Michaelis-Menten equation. […] All data are presented as mean ± SD. Data were compared between groups using the unpaired Student’s t-test. The significance level was set at p < 0.05, unless indicated otherwise.

[2] = assay type: physicochemical; details: human, microsomes, 3 h
Method: (§2) All other generated metabolites area was less than 1% of the parent area/internal standard area. […] HY-17542 underwent deacetylation rapidly in HLM incubated with or without NADPH (Figures 4A, B). The calculated half-lives for NADPH-dependent metabolism and NADPH-independent degradation were 5.26 and 10.83 min, respectively. We incubated HY-17542 without HLM and NADPH to 180 min in the phosphate buffer condition. […] CES 1 or 2 was possible enzyme responsible for the deacetylation. […] HY-17542 metabolites in HLM incubated with NADPH are presented in Figures 4C, D. M1 and M3 were also detected from HY-17542 in a time-dependent manner.

CES1 = biological target: T1, CES1 (Homo sapiens, UniProt P23141); experiment: Incubation with recombinant CES1; assay type: in vitro ADME; details: 1 µM
T1 construct: purchased Cypex (Dundee, UK)
T1 sequence (P23141 18-567): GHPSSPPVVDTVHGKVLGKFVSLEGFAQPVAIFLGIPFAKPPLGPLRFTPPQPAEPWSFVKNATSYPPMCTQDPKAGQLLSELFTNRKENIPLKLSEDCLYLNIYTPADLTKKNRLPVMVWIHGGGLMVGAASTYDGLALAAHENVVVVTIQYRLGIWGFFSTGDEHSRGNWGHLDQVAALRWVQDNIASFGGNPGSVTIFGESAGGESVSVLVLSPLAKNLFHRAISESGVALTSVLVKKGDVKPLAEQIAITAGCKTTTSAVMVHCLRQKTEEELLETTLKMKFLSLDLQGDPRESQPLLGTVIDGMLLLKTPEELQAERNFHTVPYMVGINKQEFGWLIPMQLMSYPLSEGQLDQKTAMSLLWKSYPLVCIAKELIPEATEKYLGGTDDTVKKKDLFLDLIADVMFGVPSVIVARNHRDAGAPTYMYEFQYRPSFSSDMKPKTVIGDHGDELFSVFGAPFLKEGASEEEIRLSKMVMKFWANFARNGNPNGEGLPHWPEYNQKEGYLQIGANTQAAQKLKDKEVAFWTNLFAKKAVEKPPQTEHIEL
Method: as §2
(§3) FIGURE 4 Metabolic stability of HY-17542 in HLMs. (A) 1 µM of HY-17542 was incubated with HLMs in the presence or absence of NADPH and incubated with recombinant CES 1 or CES2. […] (C) Formation of M1 in the incubation of 1 µM of HY-17542 in HLMs with NADPH. (D) Formation of M3 in the incubation of 1 µM of HY-17542 in HLMs with NADPH. Data are presented as mean ± SD from three independent samples (n = 3). (E) Representative chromatogram of GRL0617 and its metabolites in the presence of a NADPH-generating system from QTOF MS analysis.

CES2 = biological target: T2, CES2 (Homo sapiens, UniProt O00748); experiment: Incubation with recombinant CES2; assay type: in vitro ADME; details: 1 µM
T2 construct: purchased Cypex (Dundee, UK)
T2 sequence (O00748 27-559): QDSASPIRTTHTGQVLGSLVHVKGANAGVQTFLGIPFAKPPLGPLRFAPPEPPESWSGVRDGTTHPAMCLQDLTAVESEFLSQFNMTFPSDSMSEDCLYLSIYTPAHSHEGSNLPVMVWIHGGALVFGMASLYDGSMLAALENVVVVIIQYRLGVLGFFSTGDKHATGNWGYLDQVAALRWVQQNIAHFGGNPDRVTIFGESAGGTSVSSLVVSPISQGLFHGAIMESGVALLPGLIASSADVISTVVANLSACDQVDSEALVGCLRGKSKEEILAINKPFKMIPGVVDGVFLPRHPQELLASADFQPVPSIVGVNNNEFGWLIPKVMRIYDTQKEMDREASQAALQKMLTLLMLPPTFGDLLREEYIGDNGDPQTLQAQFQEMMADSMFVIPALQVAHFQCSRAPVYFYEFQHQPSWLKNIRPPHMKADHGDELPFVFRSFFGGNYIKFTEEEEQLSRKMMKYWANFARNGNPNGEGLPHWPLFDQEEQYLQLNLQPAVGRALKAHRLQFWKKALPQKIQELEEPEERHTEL
Method: as §2, §3

not read [3] = substrate: Cc1ccc(N)cc1C(=O)N[C@H](C)c1cccc2ccccc12; experiment: not read; assay type: in vitro ADME, human; details: other: M1 formation, recombinant CYP3A5, 10 min; 95% CI in parentheses; pH 7.4; 37.0 °C
Method: Reactions were conducted in triplicate using 0.1 M PPB (pH 7.4) in eight-well tube strips in an 8 × 12 rack. […] The mixture was pre-incubated at 37°C with shaking at approximately 100 rpm for 5 min. Reactions were initiated by the addition of the NADPH-regenerating system and quenched with 200 µL ice-cold acetonitrile containing 50 nM CBZ. The samples were centrifuged at 1,000 × g and 4°C for 20 min, and the supernatants were subjected to LC-QTOF HRMS. […] The reaction was incubated, initiated, terminated, centrifuged then analyzed using the same method described above.
as §1, with “Data were compared between groups using the unpaired Student’s t-test. The significance level was set at p < 0.05, unless indicated otherwise.” left out

not read [4] = substrate: Cc1ccc(N)cc1C(=O)N[C@H](C)c1cccc2ccccc12; experiment: not read; details: other: M1 formation, recombinant CYP2D6, 10 min; 95% CI in parentheses; pH 7.4; 37.0 °C

CC(=O)Nc1ccc(C)c(C(=O)N[C@H](C)c2cccc3ccccc23)c1 [HY-17542, 5-[acetylamino]-2-methyl-N-[(1R)-1-(1-naphthalenyl)ethyl]benzamide]
half-life at 1 µM [1]: 5.26 min
half-life at 1 µM ([1]; NADPH-independent degradation): 10.8 min
Remaining compound [2]: 99.89 ± 7.69%
Effect on HY-17542 concentration (CES1): did not affect HY-17542 concentration
HY-17542 concentration remaining (CES2): 88.01 ± 10.5%

B1: CYP3A5 (Homo sapiens) (protein)
chain: MDLIPNLAVETWLLLAVSLVLLYLYGTRTHGLFKRLGIPGPTPLPLLGNVLSYRQGLWKFDTECYKKYGKMWGTYEGQLPVLAITDPDVIRTVLVKECYSVFTNRRSLGPVGFMKSAISLAEDEEWKRIRSLLSPTFTSGKLKEMFPIIAQYGDVLVRNLRREAEKGKPVTLKDIFGAYSMDVITGTSFGVNIDSLNNPQDPFVESTKKFLKFGFLDPLFLSIILFPFLTPVFEALNVSLFPKDTINFLSKSVNRMKKSRLNDKQKHRLDFLQLMIDSQNSKETESHKALSDLELAAQSIIFIFAGYETTSSVLSFTLYELATHPDVQQKLQKEIDAVLPNKAPPTYDAVVQMEYLDMVVNETLRLFPVAIRLERTCKKDVEINGVFIPKGSMVVIPTYALHHDPKYWTEPEEFRPERFSKKKDSIDPYIYTPFGTGPRNCIGMRFALMNMKLALIRVLQNFSFKPCKETQIPLKLDTQGLLQPEKPIVLKVDSRDGTLSGE
notes: purchased Cypex (Dundee, UK); host or cells: bactosomes (bacterial membranes)
Km (not read [3]): 8.5 (7.6–9.5) µM

B2: CYP2D6 (Homo sapiens) (protein)
chain: MGLEALVPLAVIVAIFLLLVDLMHRRQRWAARYPPGPLPLPGLGNLLHVDFQNTPYCFDQLRRRFGDVFSLQLAWTPVVVLNGLAAVREALVTHGEDTADRPPVPITQILGFGPRSQGVFLARYGPAWREQRRFSVSTLRNLGLGKKSLEQWVTEEAACLCAAFANHSGRPFRPNGLLDKAVSNVIASLTCGRRFEYDDPRFLRLLDLAQEGLKEESGFLREVLNAVPVLLHIPALAGKVLRFQKAFLTQLDELLTEHRMTWDPAQPPRDLTEAFLAEMEKAKGNPESSFNDENLRIVVADLFSAGMVTTSTTLAWGLLLMILHPDVQRRVQQEIDDVIGQVRRPEMGDQAHMPYTTAVIHEVQRFGDIVPLGVTHMTSRDIEVQGFRIPKGTTLITNLSSVLKDEAVWEKPFRFHPEHFLDAQGHFVKPEAFLPFSAGRRACLGEPLARMELFLFFTSLLQHFSFSVPTGQPRPSHHGVFAFLVSPSPYELCAVPR
Km (not read [4]): 85.1 (69.4–107.8) µM
